In US6706663B2, “Herbicidal 3-heterocyclic substituted benzisothiazole and benzisoxazole compounds” (Wyeth, priority 2000, dated 2004):

What was measured:
ZEAMX (Corn, Field) = assay: Postemergence herbicidal evaluation; assay type: in vivo, Zea mays, L.
How it was run: (§1)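 Seedlings grown about two weeks in flats, sprayed, then kept under standard greenhouse care. Rated visually 4–5 weeks after treatment on a 0–9 scale (stand, vigour, malformation, size, chlorosis, overall appearance) relative to untreated control; repeat tests averaged.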

ORYSAT (Rice, Tebonnet) [1] = assay: Flooded paddy, post-transplant rice tolerance; assay type: in vivo, Oryza sativa, (L.) Tebonnet; details: flooded paddy, post-transplant rice, rated 3-4 weeks after treatment, 0-9 rating scale
How it was run: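 Steps: transplant two ten-day-old seedlings into silt loam; flood to 1.5-3 cm above soil; apply herbicide post-transplant; maintain water on greenhouse benches; rate stand, vigor, malformation, size and chlorosis on a 0-9 visual scale versus control.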

[2] = test system: ABUTH (Abutilon theophrasti); assay: Postemergence herbicidal evaluation; assay type: in vivo, Medic.
How it was run: as §1

[3] = test system: ECHCG (Echinochloa crus-galli); assay: Preemergence herbicidal evaluation; assay type: in vivo, (L.) Beau; details: preemergence, rated 4-5 weeks after treatment
How it was run: (§2)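 Visual 0–9 rating versus control (stand, vigor, malformation, size, chlorosis, overall appearance), scored four to five weeks post-treatment. Preemergence spray of aqueous acetone solution onto freshly seeded soil cups; plants grown under conventional greenhouse care.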

SETVI (Setaria viridis) [4] = assay: Preemergence herbicidal evaluation; assay type: in vivo, (L.) Beau; details: preemergence, rated 4-5 weeks after treatment
How it was run: as §2

[5] = test system: GLXMAW (Soybean, Williams); assay: Postemergence herbicidal evaluation; assay type: in vivo, Glycine max, (L.) Merr. cv Williams
How it was run: as §1

SETVI (Setaria viridis) [6] = assay: Postemergence herbicidal evaluation; assay type: in vivo, (L.) Beau
How it was run: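 ~2-wk seedlings; spray 0.0040–1.000 kg/ha in 50/50 acetone/water + 0.5% TWEEN 20, 40 psi nozzle. Greenhouse hold; visual 0–9 rating vs control at 4–5 wk; multiple tests averaged.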

[7] = test system: IPOHE (Ipomoea hederacea); assay: Preemergence herbicidal evaluation; assay type: in vivo, (L.) Jacq.; details: preemergence, rated 4-5 weeks after treatment
[8] = test system: MOOVA (Monochoria vaginalis); assay: Flooded paddy, preemergence weed control; assay type: in vivo, Presl.; details: rated 3-4 weeks after treatment, 0-9 rating scale
How it was run: (§3)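 Visual 0–9 ratings versus controls scored stand, vigor, malformation, size, chlorosis and overall appearance. Plants grew from seeds or propagating organs sown 0.5 cm deep in silt loam, with water held 1.5–3 cm above the soil for the whole test under greenhouse care.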

[9] = test system: AMBEL (Ambrosia artemisifolia); assay: Preemergence herbicidal evaluation; assay type: in vivo, L.; details: preemergence, rated 4-5 weeks after treatment
How it was run: as §2

[10] = test system: CHEAL (Chenopodium album); assay: Preemergence herbicidal evaluation; assay type: in vivo, L.; details: preemergence, rated 4-5 weeks after treatment
How it was run: as §2

[11] = test system: CASOB (Cassia obtusifolia); assay: Preemergence herbicidal evaluation; assay type: in vivo, L.; details: preemergence, rated 4-5 weeks after treatment
How it was run: as §2

[12] = test system: IPOHE (Ipomoea hederacea); assay: Postemergence herbicidal evaluation; assay type: in vivo, (L.) Jacq.
How it was run: as §1

[13] = test system: ECHCG (Echinochloa crus-galli); assay: Postemergence herbicidal evaluation; assay type: in vivo, (L.) Beau
How it was run: as §1

ORYSAT (Rice, Tebonnet) [14] = assay: Postemergence herbicidal evaluation; assay type: in vivo, Oryza sativa, (L.) Tebonnet
How it was run: as §1

[15] = test system: SAGPY (Sagittaria pygmaea); assay: Flooded paddy, preemergence weed control; assay type: in vivo, L.; details: rated 3-4 weeks after treatment, 0-9 rating scale
How it was run: as §3

[16] = test system: ECHORC (Echinochloa oryzoides); assay: Flooded paddy, preemergence weed control; assay type: in vivo, Echinochloa oryzoides (Ard.) Fritsch.; details: rated 3-4 weeks after treatment, 0-9 rating scale
How it was run: as §3

GALAP (Galium aparine) = assay: Postemergence herbicidal evaluation; assay type: in vivo
How it was run: as §1

CYPIR (Cyperus iria) = assay: Flooded paddy, preemergence weed control; assay type: in vivo; details: rated 3-4 weeks after treatment, 0-9 rating scale
How it was run: as §3

ORYSAT (Rice, Tebonnet) [17] = assay: Preemergence herbicidal evaluation; assay type: in vivo, Oryza sativa, (L.) Tebonnet; details: preemergence, rated 4-5 weeks after treatment

`Cn1c(C(F)(F)F)cc(=O)n(-c2ccc3snc(C4OCCS4)c3c2)c1=O` (stereo not shown) [Compound 31, 1-methyl-3-[3-(1,3-oxathiolan-2-yl)-1,2-benzisothiazol-5-yl]-6-(trifluoromethyl)uracil] was tested, and the “Postemergence herbicidal rating, ZEAMX” value (ZEAMX (Corn, Field); rate 0.0320 kg/ha) was 5.5, the “Postemergence herbicidal rating, ZEAMX” value (ZEAMX (Corn, Field); rate 0.0620 kg/ha) was 5.5 and the “herbicidal rating, ORYSAT (rice tolerance)” value (ORYSAT (Rice, Tebonnet) [1]; rate 0.0080 kg/ha) was 0.0. For the same compound, the “herbicidal rating, ORYSAT (rice tolerance)” value (ORYSAT (Rice, Tebonnet) [1]; rate 0.0320 kg/ha) was 7.5, the “herbicidal rating, ORYSAT (rice tolerance)” value (ORYSAT (Rice, Tebonnet) [1]; rate 0.1250 kg/ha) was 9.0 and the “Postemergence herbicidal rating, ABUTH” value ([2]; rate 0.0320 kg/ha) was 9.0. The “Postemergence herbicidal rating, ABUTH” value ([2]; rate 0.0620 kg/ha) was 9.0, the “ECHCG preemergence herbicidal rating” value ([3]; Rate 0.0620 kg/ha) was 4.7 and the “ECHCG preemergence herbicidal rating” value ([3]; Rate 0.1250 kg/ha) was 8.7. The “ECHCG preemergence herbicidal rating” value ([3]; Rate 0.2500 kg/ha) was 9.0, the “SETVI preemergence herbicidal rating” value (SETVI (Setaria viridis) [4]; Rate 0.0620 kg/ha) was 7.7 and the “SETVI preemergence herbicidal rating” value (SETVI (Setaria viridis) [4]; Rate 0.1250 kg/ha) was 9.0. For the same compound, the “SETVI preemergence herbicidal rating” value (SETVI (Setaria viridis) [4]; Rate 0.2500 kg/ha) was 9.0, the “Postemergence herbicidal rating, GLXMAW” value ([5]; rate 0.0320 kg/ha) was 8.5 and the “Postemergence herbicidal rating, GLXMAW” value ([5]; rate 0.0620 kg/ha) was 9.0. The “Postemergence herbicidal rating, SETVI” value (SETVI (Setaria viridis) [6]; rate 0.0320 kg/ha) was 3.0, the “Postemergence herbicidal rating, SETVI” value (SETVI (Setaria viridis) [6]; rate 0.0620 kg/ha) was 7.0 and the “IPOHE preemergence herbicidal rating” value ([7]; Rate 0.0620 kg/ha) was 5.0. The “IPOHE preemergence herbicidal rating” value ([7]; Rate 0.1250 kg/ha) was 9.0, the “IPOHE preemergence herbicidal rating” value ([7]; Rate 0.2500 kg/ha) was 9.0 and the “herbicidal rating, MOOVA” value ([8]; rate 0.0080 kg/ha) was 5.0. For the same compound, the “herbicidal rating, MOOVA” value ([8]; rate 0.0320 kg/ha) was 9.0, the “herbicidal rating, MOOVA” value ([8]; rate 0.1250 kg/ha) was 9.0 and the “AMBEL preemergence herbicidal rating” value ([9]; Rate 0.0620 kg/ha) was 9.0. The “AMBEL preemergence herbicidal rating” value ([9]; Rate 0.1250 kg/ha) was 9.0, the “AMBEL preemergence herbicidal rating” value ([9]; Rate 0.2500 kg/ha) was 9.0 and the “CHEAL preemergence herbicidal rating” value ([10]; Rate 0.0620 kg/ha) was 9.0. For the same compound, the “CHEAL preemergence herbicidal rating” value ([10]; Rate 0.1250 kg/ha) was 9.0, the “CHEAL preemergence herbicidal rating” value ([10]; Rate 0.2500 kg/ha) was 9.0 and the “CASOB preemergence herbicidal rating” value ([11]; Rate 0.0620 kg/ha) was 5.0. For the same compound, the “CASOB preemergence herbicidal rating” value ([11]; Rate 0.1250 kg/ha) was 8.0, the “CASOB preemergence herbicidal rating” value ([11]; Rate 0.2500 kg/ha) was 9.0 and the “Postemergence herbicidal rating, IPOHE” value ([12]; rate 0.0320 kg/ha) was 9.0. The “Postemergence herbicidal rating, IPOHE” value ([12]; rate 0.0620 kg/ha) was 9.0, the “Postemergence herbicidal rating, ECHCG” value ([13]; rate 0.0320 kg/ha) was 2.0 and the “Postemergence herbicidal rating, ECHCG” value ([13]; rate 0.0620 kg/ha) was 2.0. For the same compound, the “Postemergence herbicidal rating, ORYSAT” value (ORYSAT (Rice, Tebonnet) [14]; rate 0.0320 kg/ha) was 3.5, the “Postemergence herbicidal rating, ORYSAT” value (ORYSAT (Rice, Tebonnet) [14]; rate 0.0620 kg/ha) was 5.5 and the “herbicidal rating, SAGPY” value ([15]; rate 0.0080 kg/ha) was 0.0. For the same compound, the “herbicidal rating, SAGPY” value ([15]; rate 0.0320 kg/ha) was 9.0, the “herbicidal rating, SAGPY” value ([15]; rate 0.1250 kg/ha) was 9.0 and the “herbicidal rating, ECHORC” value ([16]; rate 0.0080 kg/ha) was 3.0. The “herbicidal rating, ECHORC” value ([16]; rate 0.0320 kg/ha) was 8.0, the “herbicidal rating, ECHORC” value ([16]; rate 0.1250 kg/ha) was 9.0 and the “Postemergence herbicidal rating, GALAP” value (GALAP (Galium aparine); rate 0.0320 kg/ha) was 6.0. The “Postemergence herbicidal rating, GALAP” value (GALAP (Galium aparine); rate 0.0620 kg/ha) was 9.0, the “herbicidal rating, CYPIR” value (CYPIR (Cyperus iria); rate 0.0080 kg/ha) was 0.0 and the “herbicidal rating, CYPIR” value (CYPIR (Cyperus iria); rate 0.0320 kg/ha) was 9.0. For the same compound, the “herbicidal rating, CYPIR” value (CYPIR (Cyperus iria); rate 0.1250 kg/ha) was 9.0, the “ORYSAT preemergence herbicidal rating” value (ORYSAT (Rice, Tebonnet) [17]; Rate 0.0620 kg/ha) was 4.0 and the “ORYSAT preemergence herbicidal rating” value (ORYSAT (Rice, Tebonnet) [17]; Rate 0.1250 kg/ha) was 7.7. For the same compound, the “ORYSAT preemergence herbicidal rating” value (ORYSAT (Rice, Tebonnet) [17]; Rate 0.2500 kg/ha) was 8.5.
